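These data come from cells grown in 96-well plates and exposed to compound for 48 hours at five concentrations. Definition used: TGI = concentration required for complete inhibition of growth.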
Experiments:
Test in all cases: NCI tumour cell line growth inhibition, 48 h
M14 melanoma = system: M14 melanoma
TK-10 renal = system: TK-10 renal
SF-295 CNS = system: SF-295 CNS
UACC-257 melanoma = system: UACC-257 melanoma
BT-549 breast = system: BT-549 breast
ACHN renal = system: ACHN renal
NCI/ADR-RES ovarian = system: NCI/ADR-RES ovarian
OVCAR-3 ovarian = system: OVCAR-3 ovarian
SK-MEL-28 melanoma = system: SK-MEL-28 melanoma
OVCAR-5 ovarian = system: OVCAR-5 ovarian
NCI-H522 lung = system: NCI-H522 lung
CCRF-CEM leukemia = system: CCRF-CEM leukemia
SK-OV-3 ovarian = system: SK-OV-3 ovarian
MOLT-4 leukemia = system: MOLT-4 leukemia
MDA-MB-435 = system: MDA-MB-435
HCC-2998 colon = system: HCC-2998 colon
OVCAR-4 ovarian = system: OVCAR-4 ovarian

| SMILES | TGI (M14 melanoma) | TGI (TK-10 renal) | TGI (SF-295 CNS) | TGI (UACC-257 melanoma) | TGI (BT-549 breast) | TGI (ACHN renal) | TGI (NCI/ADR-RES ovarian) | TGI (OVCAR-3 ovarian) | TGI (SK-MEL-28 melanoma) | TGI (OVCAR-5 ovarian) | TGI (NCI-H522 lung) | TGI (CCRF-CEM leukemia) | TGI (SK-OV-3 ovarian) | TGI (MOLT-4 leukemia) | TGI (MDA-MB-435) | TGI (HCC-2998 colon) | TGI (OVCAR-4 ovarian) |
| --- | --- | --- | --- | --- | --- | --- | --- | --- | --- | --- | --- | --- | --- | --- | --- | --- | --- |
| Cc1ncc([N+](=O)[O-])n1CCNC(=O)Cn1c([N+](=O)[O-])cnc1C | > 100 µM | > 100 µM | > 100 µM | > 100 µM | > 100 µM | > 100 µM | > 100 µM | > 100 µM | > 100 µM | > 100 µM | > 100 µM | > 100 µM | > 100 µM | > 100 µM | > 100 µM | > 100 µM |  |
| CCOC(=O)C(=O)C(CCC(=O)c1ccc2ccccc2c1O)C(=O)OCC (stereo unspecified) | > 100 µM |  | > 100 µM | > 100 µM | > 100 µM | > 100 µM | > 100 µM | > 100 µM | > 100 µM | > 100 µM | > 100 µM | > 100 µM | > 100 µM | > 100 µM | > 100 µM | > 100 µM | > 100 µM |
| COc1ccc(CCc2nccn2C)cc1OC | > 100 µM | > 100 µM | > 100 µM | > 100 µM | > 100 µM | > 100 µM | > 100 µM | > 100 µM | > 100 µM | > 100 µM |  | > 100 µM | > 100 µM | > 100 µM | > 100 µM | > 100 µM | > 100 µM |
| COc1ccc(N=[N+]([O-])c2ccc(OC)cc2)cc1 | > 100 µM | > 100 µM | > 100 µM | > 100 µM | > 100 µM | > 100 µM | > 100 µM | > 100 µM | > 100 µM | > 100 µM | > 100 µM |  | > 100 µM | > 100 µM | > 100 µM | > 100 µM | > 100 µM |
| CC1=NN=C(N)NC1=CC(Sc1ccc(Cl)cc1)c1c(O)ccc2ccccc12 (stereo unspecified) | 36.2 µM | > 100 µM | > 57.7 µM | > 87.1 µM | > 81.5 µM | 28.1 µM | 71.9 µM |  | > 62.6 µM | > 61.9 µM | 41.8 µM | 31.5 µM | 67.4 µM | > 84.9 µM | > 86.6 µM | 32.2 µM | > 64.7 µM |
| CCOP(=O)(OCC)/C(C#N)=C/c1ccnc2ccccc12 | 47.6 µM | > 100 µM | 57.9 µM | > 100 µM | 50.9 µM | > 100 µM | > 100 µM | 70.6 µM | > 100 µM | 51 µM | 57.8 µM |  | 82.7 µM | > 100 µM | 31.3 µM | > 100 µM | > 100 µM |
| CC(C)(C)OC(=O)N(CCCCNCc1ccc2ccccc2c1)CCCNCc1ccc2ccccc2c1 |  | 3.07 µM |  | 3.42 µM | 3.25 µM | 3.39 µM | 3.02 µM |  | 3.39 µM | 3.22 µM | 3.07 µM | 2.86 µM | 3.56 µM | 2.28 µM | 3.47 µM | 0.549 µM | 3.19 µM |
| c1ccc2cc3c(cc2c1)nc1ccccn13 | > 100 µM | > 100 µM | > 100 µM | > 100 µM | > 100 µM | > 100 µM | > 100 µM | > 100 µM | > 100 µM | > 100 µM |  | > 100 µM | > 100 µM | > 100 µM | > 100 µM | > 100 µM |  |
| CC1(C)[C@H]2Cc3cc(-c4cc5c(cn4)[C@@H]4C[C@H]([C@@H]5[C@@H]5c6cc(-c7cc8c(cn7)[C@@H]7C[C@H](C8)C7(C)C)ncc6[C@@H]6C[C@H]5C6(C)C)C4(C)C)ncc3[C@@H]1C2 | > 100 µM |  | > 100 µM | > 100 µM | > 100 µM | > 100 µM | > 100 µM | > 100 µM | > 100 µM | > 100 µM | > 100 µM | > 100 µM | > 100 µM | > 100 µM | > 100 µM | > 100 µM |  |
| COc1ccccc1CNC(=O)[C@H](Cc1ccc(O)cn1)NC(C)=O | > 100 µM | > 100 µM | > 100 µM | > 100 µM | > 100 µM | > 100 µM | > 100 µM | > 100 µM | > 100 µM | > 100 µM | > 100 µM | > 100 µM | > 100 µM |  | > 100 µM | > 100 µM | > 100 µM |
| CCN(CC)CCO/N=C1/C=C2CCC3C(CC[C@@]4(C)C3CC[C@]4(C)O)[C@@]2(C)CC1 (stereo partly specified) | 23.8 µM | 45.1 µM | 8.29 µM | 18.2 µM | 39.1 µM | 39.2 µM | 7.48 µM | 13.6 µM |  | 80 µM | 6.07 µM | 3.97 µM | 46.4 µM | 10.2 µM | 4.77 µM | 19 µM | > 100 µM |
| COCCOC(=O)C(C)=[N+]=[N-] |  | > 100 µM | > 100 µM | > 100 µM | > 100 µM | > 100 µM | > 100 µM | > 100 µM | > 100 µM | > 100 µM | > 100 µM |  |  |  | > 100 µM | > 100 µM | > 100 µM |
| CCOP(=O)(OCC)/C(C#N)=C/c1c[nH]c2ccccc12 | > 100 µM | > 100 µM | > 100 µM | > 100 µM | > 100 µM | > 100 µM | > 100 µM | > 100 µM | > 100 µM | > 100 µM | > 100 µM |  | > 100 µM |  | > 100 µM | > 100 µM | > 100 µM |
| C/C=C/[C@H](O[Si](C)(C)C(C)(C)C)[C@@H](O)/C=C/C(=O)OCC |  | 75.6 µM | 46 µM | 40.8 µM | 65.4 µM | 30.2 µM | 76.8 µM | 47.6 µM | 32.4 µM | 79.5 µM | 30.3 µM | 35.4 µM |  | 37.6 µM | 38.5 µM | 34.8 µM | 27.8 µM |
| COc1cccc(-c2nc(-c3cnccn3)n(COCCO)n2)c1 | > 100 µM | > 100 µM | > 100 µM | > 100 µM | > 100 µM |  | > 100 µM | > 100 µM | > 100 µM | > 100 µM | > 100 µM | > 100 µM | > 100 µM | > 100 µM | > 100 µM | > 100 µM | > 100 µM |
